From PubChem BioAssay AID1549 (Sanford-Burnham Center for Chemical Genomics, 2009)
Calls of active or inactive are those of the source. No rule for the calls is given here.

Each compound was assayed against Influenza A virus M2 proton channel (A/TW/4845/1999 H1N1) (assay: M2 proton channel binding, NMR based, influenza A virus H1N1 strain (AID 1549)). Settings: NMR binding screen, M2 protein.
For `C[C@@H]1O[C@@H](O[C@H]2C[C@@H](O)[C@]3(CO)C4C(CC[C@]3(O)C2)[C@@]2(O)CC[C@H](C3=CC(=O)OC3)[C@@]2(C)C[C@H]4O)[C@H](O)[C@H](O)[C@H]1O` (stereo not given in full), the Kd was > 4 mM (inactive).
With `CN1CCC=C(C(=O)O)C1` the Kd was > 4 mM (inactive).
In the case of `Cc1nnsc1C(=O)Nc1ccccn1`, the Kd is reported as > 4 mM (inactive).
With `Nc1nc(-c2ccncc2)cs1` the Kd was > 4 mM (inactive).
For `O=C1CCCc2c(O)cccc21`, the Kd was > 4 mM (inactive).
For `O=C(O)C12CC3CC(CC(O)(C3)C1)C2`, the Kd was > 4 mM (inactive).
`CC(=O)Nc1cccc(-c2nc3ccccc3c(=O)o2)c1` was tested, and the Kd was > 4 mM (inactive).
With `Cc1nc2ccccc2c2c1C(=O)N(N)C2=O` the Kd was > 4 mM (inactive).
For `CSc1nn(-c2ccccc2)c(N)c1C#N`, the Kd was > 4 mM (inactive).
For `CNC(=O)Nc1cccc(C(F)(F)F)c1`, the Kd was > 4 mM (inactive).
`CC(=O)N1CCN(S(=O)(=O)c2ccccc2)CC1` was tested, and the Kd was > 4 mM (inactive).
In the case of `COC(=O)c1cccc(Cn2nnc3ccccc3c2=O)c1`, the Kd is reported as > 4 mM (inactive).
For `CC1=NN(c2ccc(C)cc2)C(=O)C1`, the Kd was > 4 mM (inactive).
`Cc1ccc(NC(=O)C(=O)Nc2ccccn2)cc1` was tested, and the Kd was > 4 mM (inactive).
For `NCc1ccc2c(c1)CCO2`, the Kd was > 4 mM (inactive).
With `CC(=O)CC(=O)N1C(O)CC[N+]1(C)C` (stereo not given) the Kd was > 4 mM (inactive).
`Cc1ccc(S(=O)(=O)CC(N)=O)cc1` was tested, and the Kd was > 4 mM (inactive).
With `CSc1ncc(CO)n1Cc1ccccc1` the Kd was > 4 mM (inactive).
With `Cc1cc(=O)n(CC(C)C)c(O)c1C#N` the Kd was > 4 mM (inactive).
In the case of `OC[C@H]1O[C@@H](n2cnc3c(NCc4ccco4)ncnc32)[C@H](O)[C@@H]1O`, the Kd is reported as > 4 mM (inactive).
With `COC(=O)C1=C(C)N(Cc2ccco2)C(=O)C1` the Kd was > 4 mM (inactive).
`Cc1ccc(NC(=O)/C=C2\SC(=O)NC2=O)cc1` was tested, and the Kd was > 4 mM (inactive).
In the case of `CCOC(=O)CSCC(=O)Nc1nccs1`, the Kd is reported as > 4 mM (inactive).
With `O=CN1CCN(C(=O)c2ccccc2F)CC1` the Kd was > 4 mM (inactive).
In the case of `O=C(O)CCCC(=O)Nc1nccs1`, the Kd is reported as > 4 mM (inactive).
With `O=C(Nc1ccon1)c1ccc2c(c1)OCO2` the Kd was > 4 mM (inactive).
`CCC(CCC(C)[C@H]1CCC2C3CC=C4C[C@@H](O)CC[C@]4(C)C3CC[C@@]21C)C(C)C` (stereo not given in full) was tested, and the Kd was > 4 mM (inactive).
With `COc1cc(C(C)=O)ccc1OC(=O)N1CCOCC1` the Kd was > 4 mM (inactive).
With `COc1cc(OC)c(-c2nc3cnccc3n2C)cc1OC` the Kd was > 4 mM (inactive).
`NC(=O)c1ccc(N2C(=O)C=CC2=O)cc1Cl` was tested, and the Kd was > 4 mM (inactive).
With `CC(=O)c1c(C)n([O-])c2ccccc2[n+]1=O` the Kd was > 4 mM (inactive).
`O=C(CCc1ccc(O)cc1)c1c(O)cc(O)cc1O` was tested, and the Kd was > 4 mM (inactive).
For `CN(C)C(=O)N1CCN(C(=O)c2ccco2)CC1`, the Kd was > 4 mM (inactive).
For `C=C1C2=CC(=O)O[C@@H](c3ccoc3)[C@]2(C)CCC1[C@@]1(C)C=CC(=O)C(C)(C)[C@@H]1CC(=O)OC` (stereo not given in full), the Kd was > 4 mM (inactive).
With `Cc1[nH]c2ccccc2c1C=Nn1cncn1` the Kd was > 4 mM (inactive).
`Cc1cc(C(=O)NC(C)c2ccncc2)no1` (stereo not given) was tested, and the Kd was > 4 mM (inactive).
With `O=C(O)c1ccc(-c2cccs2)s1` the Kd was > 4 mM (inactive).
`c1ccc(-n2nnnc2-n2cnc3ccccc32)cc1` was tested, and the Kd was > 4 mM (inactive).
In the case of `COc1ccc(NC(=O)C(N)=O)cc1Cl`, the Kd is reported as > 4 mM (inactive).
For `O=C1NC(=S)N/C1=C\c1cccnc1`, the Kd was > 4 mM (inactive).
For `CC(=O)c1c(C)nc(C)nc1NC(=O)C(C)C`, the Kd was > 4 mM (inactive).
With `Cc1cccc(-n2c(N)cc(=O)[nH]c2=S)c1C` the Kd was > 4 mM (inactive).
For `N#Cc1nc(-c2cccs2)oc1N1CCOCC1`, the Kd was > 4 mM (inactive).
For `COc1ccc(Cl)cc1-c1nc(-c2ccncc2)no1`, the Kd was > 4 mM (inactive).
`O=C(c1cccc(C(F)(F)F)c1)N1CCCC1` was tested, and the Kd was > 4 mM (inactive).
With `CC1(C)Cc2cccc(CO)c2O1` the Kd was > 4 mM (inactive).
`COc1ccc2c(c1)OCC(Cc1ccc(OC)c(OC(C)=O)c1)C2=O` (stereo not given) was tested, and the Kd was > 4 mM (inactive).
`OC12CC3CC(CC(C3)C1)C2` was tested, and the Kd was > 4 mM (inactive).
`O=C(Nn1cnnc1)c1cccc(C(F)(F)F)c1` was tested, and the Kd was > 4 mM (inactive).
`COc1cc(-c2csc(C)n2)ccc1O` was tested, and the Kd was > 4 mM (inactive).
In the case of `Cc1oc(-c2ccccc2)cc1C(=O)O`, the Kd is reported as > 4 mM (inactive).
With `COC(=O)c1sc(N)nc1C` the Kd was > 4 mM (inactive).
With `Cc1oc(-c2ccccc2)nc1CCO` the Kd was > 4 mM (inactive).
`O=C1NNC(=O)C2C3c4ccccc4C(c4ccccc43)C12` (stereo not given) was tested, and the Kd was > 4 mM (inactive).
In the case of `O=C(O)CSc1cccc2cccnc12`, the Kd is reported as > 4 mM (inactive).
With `COCC(=O)OCn1nnc2ccccc2c1=O` the Kd was > 4 mM (inactive).
For `NS(=O)(=O)c1ccc2c3c(cccc13)C(=O)N2`, the Kd was > 4 mM (inactive).
In the case of `Cn1cnc2ccc([N+](=O)[O-])cc2c1=O`, the Kd is reported as > 4 mM (inactive).
`COC(=O)c1ccc(NC(=O)CC2NCCNC2=O)cc1` (stereo not given) was tested, and the Kd was > 4 mM (inactive).
`COc1ccc2c3c([nH]c2c1)C(C)=NCC3` was tested, and the Kd was > 4 mM (inactive).
`O=c1ccc2cc(O)c(O)cc2o1` was tested, and the Kd was > 4 mM (inactive).
With `COc1ccc(/C=C/c2cc(O)cc(O)c2)cc1` the Kd was > 4 mM (inactive).
`Cc1nnc(SCC(=O)N2CCCCC2)s1` was tested, and the Kd was > 4 mM (inactive).
`O=C(CC1CCCCC1)N1CCN(c2ccccn2)CC1` was tested, and the Kd was > 4 mM (inactive).
`CN(C)c1ccc2c(=O)[nH][nH]c(=O)c2c1` was tested, and the Kd was > 4 mM (inactive).
With `Nc1ccccc1OC(F)(F)F` the Kd was > 4 mM (inactive).
`Fc1ccc2onc(C3CCNCC3)c2c1` was tested, and the Kd was > 4 mM (inactive).
`Cn1cnc2c(=S)[nH]c(=O)n(Cc3ccccc3)c21` was tested, and the Kd was > 4 mM (inactive).
In the case of `COC(=O)N(c1ccccc1)P1(=S)OCCO1`, the Kd is reported as > 4 mM (inactive).
In the case of `C=CC(C1=CC(=O)C=CC1=O)c1ccccc1` (stereo not given), the Kd is reported as > 4 mM (inactive).
`CC1(C)C(=O)[C@@H]2O[C@@H]2[C@@]2(C)C1C[C@@H](O)[C@]1(C)C2CC[C@@]2(C)[C@H](c3ccoc3)OC(=O)C3OC321` (stereo not given in full) was tested, and the Kd was > 4 mM (inactive).
`CC(=O)Oc1cc2c(C(C)=O)coc2c2ccccc12` was tested, and the Kd was > 4 mM (inactive).
With `Nc1ccccc1C(=O)CC(N)C(=O)O` (stereo not given) the Kd was > 4 mM (inactive).
With `O=C(c1ccco1)N1CCN(c2ccc(Cl)cc2)CC1` the Kd was > 4 mM (inactive).
In the case of `NCc1c[nH]c2ccccc12`, the Kd is reported as > 4 mM (inactive).
With `COc1c(OC)c2occc2c2oc(=O)ccc12` the Kd was > 4 mM (inactive).
With `CC(C)=CCCC1(C)C=Cc2c(O)c3c(c(CC=C(C)C)c2O1)OC12C(=CC4CC1C(C)(C)OC2(C/C=C(/C)C(=O)O)C4O)C3=O` (stereo not given) the Kd was > 4 mM (inactive).
`O=C1CSC(=O)N1CNc1ccccc1` was tested, and the Kd was > 4 mM (inactive).
With `CC12CCC(O)CC1CCC1C2[C@H](O)CC2(C)C(C3=CC(=O)OC3)CCC12O` (stereo not given in full) the Kd was > 4 mM (inactive).
`Cn1c(NCc2ccco2)nc2ccccc21` was tested, and the Kd was > 4 mM (inactive).
`OCC1CN(Cc2ccccc2)CCO1` (stereo not given) was tested, and the Kd was > 4 mM (inactive).
In the case of `Cc1occc1C(=O)Nc1nccs1`, the Kd is reported as > 4 mM (inactive).
In the case of `COCCn1c(N)nc2c1c(=O)[nH]c(=O)n2C`, the Kd is reported as > 4 mM (inactive).
In the case of `CN(C)c1oc(-c2ccccc2Cl)nc1C#N`, the Kd is reported as > 4 mM (inactive).
With `COc1cc(/C=C/C(=O)O)ccc1O` the Kd was > 4 mM (inactive).
For `Nc1ccccc1-c1nc2ccccc2[nH]1`, the Kd was > 4 mM (inactive).
`COc1ccc(S(=O)(=O)N2CCOCC2)cc1C(C)C` was tested, and the Kd was > 4 mM (inactive).
With `Nc1cc(-c2ccco2)[nH]n1` the Kd was > 4 mM (inactive).
For `CC(=O)NC(=S)Nc1ccc(S(N)(=O)=O)cc1`, the Kd was > 4 mM (inactive).
For `Cc1ccc(F)cc1NC(=O)c1ccc2c(c1)OCO2`, the Kd was > 4 mM (inactive).
In the case of `COc1c2ccoc2cc2oc(=O)ccc12`, the Kd is reported as > 4 mM (inactive).
In the case of `Cn1ncc(C(=O)NC2CCCCC2)c1Cl`, the Kd is reported as > 4 mM (inactive).
`O=C(CSc1ncn[nH]1)c1ccc2c(c1)OCCO2` was tested, and the Kd was > 4 mM (inactive).
In the case of `O=c1ccc(=O)n(CN2CCc3ccccc3C2)[nH]1`, the Kd is reported as > 4 mM (inactive).
For `COc1cc2ccc(=O)oc2c(OC)c1OC`, the Kd was > 4 mM (inactive).
With `O=C(O)CCSc1nc2ccccc2s1` the Kd was > 4 mM (inactive).
`S=C(Nc1ccccc1)Nc1nncs1` was tested, and the Kd was > 4 mM (inactive).
With `COc1ccccc1NC(=O)c1snnc1C` the Kd was > 4 mM (inactive).
In the case of `COc1cc(/C=C2\SC(=S)NC2=O)ccc1O`, the Kd is reported as > 4 mM (inactive).
With `Cc1cc(C)nc(/N=C(/N)N2CCC(C(N)=O)CC2)n1` the Kd was > 4 mM (inactive).
With `O=C1CC(=O)N(c2cccc(Cl)c2)N1` the Kd was > 4 mM (inactive).
For `CC1=C2C(=CO[C@H](C)[C@H]2C)C(=O)C(C(=O)O)=C1O`, the Kd was > 4 mM (inactive).
In the case of `Cc1ccc(N2C(=O)CC(Sc3ncn[nH]3)C2=O)cc1` (stereo not given), the Kd is reported as > 4 mM (inactive).
With `COC1=CC(=O)C=C(OC)C1=O` the Kd was > 4 mM (inactive).
With `O=C1c2cccc3cc(S(=O)(=O)O)cc(c23)C(=O)N1O` the Kd was > 4 mM (inactive).
`CC(=O)Oc1c(-c2ccccc2)oc2c(CC=C(C)C)c3c(c(OC(C)=O)c2c1=O)C=CC(C)(C)O3` was tested, and the Kd was > 4 mM (inactive).
For `NC1=NC(=O)CC(C(=O)Nc2ccccc2)S1` (stereo not given), the Kd was > 4 mM (inactive).
For `O=C(O)C1CC(=O)N(Cc2ccc(F)cc2)C1` (stereo not given), the Kd was > 4 mM (inactive).
With `O=C(Nc1ccccc1Cl)c1cnccn1` the Kd was > 4 mM (inactive).
With `COc1ccc(C2NC(C(=O)O)CS2)cc1` (stereo not given) the Kd was > 4 mM (inactive).
For `Clc1ncc2[nH]cnc2n1`, the Kd was > 4 mM (inactive).
With `O=CN1CCN(C(=O)c2ccco2)CC1` the Kd was > 4 mM (inactive).
In the case of `Cc1ccc(-c2nc(-c3cccnc3)no2)c(C)c1`, the Kd is reported as > 4 mM (inactive).
With `Nc1nc2ccccc2n1CCN1CCCC1` the Kd was > 4 mM (inactive).
`O=C(O)c1ccc2ncccc2c1` was tested, and the Kd was > 4 mM (inactive).
For `O=C(/C=C/c1ccccc1)c1ccc(O)cc1`, the Kd was > 4 mM (inactive).
In the case of `CC(C)=CCOc1cc2oc(=O)ccc2cc1O`, the Kd is reported as > 4 mM (inactive).
With `COC(=O)CCSCC(=O)Nc1nnc(C)s1` the Kd was > 4 mM (inactive).
In the case of `COc1cccc(NC(=O)c2nc3ncccn3n2)c1`, the Kd is reported as > 4 mM (inactive).
With `Oc1cc(O)c2c(c1)O[C@H](c1ccc(O)c(O)c1)[C@H](O)C2` the Kd was > 4 mM (inactive).
